Data: paper PMC13108699, “Mass balance and metabolite profiling of ^14C-Zalunfiban in humans following single-dose subcutaneous administration” (Xenobiotica; the fate of foreign compounds in biological …, 2025)
Where “and” joins values, the source holds several entries; their conditions need not be identical. Identical values can stand only once.

Columns and labels:
[1] = Metabolite profiling of pooled whole blood, urine and faeces by LC radiochromatograms with AMS; type: in vivo, human
Method: For metabolite profiling in whole blood, urine, and faeces, LC-MS/MS followed by AMS was used. The HPLC system included a 1290 Infinity Sampler, Binary Pump, and thermostat (Agilent, UK). The chromatographic method used an aqueous formic acid (MPA)/ammonium acetate:acetonitrile:methanol (MPB) gradient and a Scherzo SS-C18 HPLC column at a temperature of 40 °C with injection volumes of 50–200 microliters. The gradient was set at 90% MAP and 10% MPB. The mass spectrometer was a Q-Exactive system (Thermo Fisher Scientific, UK) and the AMS a single stage NEC SSAMS-250.
Single whole blood, faeces, and urine pools were created across subjects and radioactive regions representing 10% or more of the circulating radioactivity were analysed (e.g. 10% or more of the circulating radioactivity in whole blood or accounting for 10% or more of the administered radioactivity/dose in urine and faeces), To create the pool, an individual subject AUC pool was prepared, and a constant proportion of each subject pool was taken to create one cross-subject pool. The whole blood sample pool included samples from hours 0–144, the urine sample pool included samples from hours 0–48, and the faeces pool from hours 0–192.
Whole blood, faeces, and urine radiochromatograms were generated for each sample by collecting HPLC fractions at intervals of 2 (30 s) or 4 (15 s) per minute over the run time of 110 min.
Radiochromatograms were generated from AMS data using the LAURA V6 software (LabLogic, Sheffield, UK). Regions of interest were quantified and provisionally identified where possible by assignment of observed peaks in each radiochromatogram to either parent zalunfiban or M1 by retention time matching, with corresponding ^12C-reference standards obtained via LC-UV.
Assignment of parent and metabolites was made by matching retention times with synthesised standards at wavelengths of 210, 230, 254, 270, and 300 nm, using liquid chromatography ultraviolet chromatography (LC-UV).
For extraction of ^14C-zalunfiban from whole blood, weighed aliquots in microcentrifuge tubes were processed with vortex mixing and centrifugation. The supernatant was then harvested and the process repeated with the bullet material in the original tube using acetonitrile and then methanol. The combined aliquots then underwent AMS analysis to determine the extraction recovery. Once optimised, the final combined supernatant was dried under N2 gas at 40 °C and reconstituted with 1 mL methanol:water (20:80, v/v), with vortex mixing and sonication. This was followed by analysis by LC. The radioactivity extraction recovery for whole blood (AUC0–144h) was 54.5%,
For extraction of ^14C-zalunfiban from homogenised faeces, weighed aliquots in microcentrifuge tubes were processed with vortex mixing and centrifugation, and then diluted with acetonitrile, followed by additional mixing, centrifugation, and repeat extraction with methanol:water until optimised. Once optimised, the final combined supernatant was dried under N2 gas at 40 °C and reconstituted with methanol, followed by water, followed by vortex mixing, followed by analysis by LC. The radioactivity extraction recovery for faeces (0–192 h) was 100%.
Urine was not subjected to extraction. An aliquot was dispensed into an LC vial prior to analysis.

[2] = tested on: platelet aggregation; experiment: In vitro inhibition of ADP-induced platelet aggregation in platelet-rich plasma; type: cell-based, human; details: Homo sapiens, Platelet, 20 min; PRP, 20 min at 22°C, ADP-initiated aggregation
Method: Ten mL of whole blood was collected from healthy human donors via venipuncture and treated with an anticoagulant (D-phenylalanyl-prolyl-arginyl chloromethyl ketone). From this, platelet-rich plasma (PRP) was prepared by centrifuging whole blood at room temperature at 650 × g for 4 min. PRP was removed and standardised to a uniform platelet concentration of 3.0 × 10^5/μL, using platelet poor plasma as a diluent, where necessary. […] Platelet aggregation was measured using an aggregometer (PAP-8E C/N 106075; Bio/Data Corp, Horsham PA). For M1 a range of concentrations was tested to produce a single fitted curve, and the Levenberg-Marquardt approach was used to calculate IC50 values.

[3] = Whole blood total radioactivity (AMS) PK after SC ^14C-zalunfiban; type: in vivo, human
Method: The planned participant enrolment size was 8, with 2 additional alternate participants available on the morning of dosing. Following a 28-day screening period, all eligible participants were admitted to the research unit the evening before dosing. After fasting overnight, participants completed a standard breakfast prior to dosing on study day 1. After dosing, subjects fasted for 4 h. Fluids were permitted ad libitum starting 1-hour after dosing. […] The clinical study was conducted at the Pharmaron Clinical Pharmacology Centre (Baltimore, MD) and the study protocol, consent forms and regulatory documents were reviewed and approved by the […] Institutional Review Board (Columbia, MD). All participants received the same fixed mass dose of SC 9.5 mg ^14C-zalunfiban (5 μCi), in 0.5 mL of formulation solution. This zalunfiban dose was chosen to both ensure participant safety and to make certain the study results were clinically relevant. For the latter, by strict inclusion of participants with a body weight within the range of 73-99 kg, the zalunfiban doses were no higher than the highest administered in the currently ongoing Phase 3 study, which includes three groups of 0.110 mg/kg zalunfiban, 0.130 mg/kg zalunfiban, and placebo ([NIH 2025]). The ^14C radiolabel dose of 5 μCi presented minimal radiation risk to healthy subjects while providing a high likelihood of meeting the study objectives. […] At the laboratory, extraction of ^14C-zalunfiban from whole blood was achieved by repeated microcentrifugation, vortex mixing, and harvesting to collect analytes (see Metabolite profiling and excretion for more details). […] Whole blood samples were analysed using accelerator mass spectrometry (AMS). Urine sample analysis was performed using liquid scintillation counting analysis. Each sample was counted for at least 10 min or until the 2%2σ terminator was reached. Homogenised faeces samples were combusted in a Perkin Elmer, Model 307 sample oxidiser (Perkin Elmer, Waltham MA). […] For urine and faeces samples, total radioactivity analysis was initially performed using two liquid scintillation counters (LSC), a TriCarb 3180 TR/SL and a TriCarb 5110 TR (Perkin Elmer, Waltham MA). When the measured total radioactivity concentration was above the LLOQ, LSC data were reported. For LSC, the LLOQ was defined as twice the background count rate. If the radioactivity concentration was below the limit of quantification (BLOQ), samples were analysed by Accelerator Mass Spectrometry (AMS). For AMS analysis, the LLOQ for total radioactivity depends on multiple factors, including the carbon content of the sample, and it is provided as the mean of all participant values. The mean (SD) total radioactivity LLOQ for zalunfiban in whole blood was 0.2421 (0.0571) ngEq/mL, for faeces 0.0663 (0.0135) ngEq/gm, and urine 0.0088 (0.0029) ngEq/g. Zalunfiban and whole blood radioactivity concentrations were used to calculate PK parameters using standard non-compartmental analysis (NCA) methods using Phoenix WinNonlin software (Phoenix, Princeton, NJ). All statistical programming and tables, figures and listings were carried out using SAS 9.4 (SAS Institute, Inc., Cary, NC).

## NCC(=O)Nc1cncc(-c2nn3c(=O)cc(N4CCNCC4)nc3s2)c1 [Zalunfiban, 2-amino-N-{5-[5-oxo-7-(piperazin-1-yl)-5H-[1,3,4]thia-diazolo[3,2-a]pyrimidin-2-yl]pyridin-3-yl}acetamide]
[1]; 0–48 h
  Percentage of dose excreted in urine: 1.31%
[1]; 0–48 h cross-participant pooled sample
  Percentage of total radioactivity in urine: 1.59%
[1]; 0–192 h
  Percentage of dose excreted in faeces: 0.0239%
[1]; 0–192 h pooled sample
  Percentage of total radioactivity in faeces: 0.173%
[1]; AUC0–144 cross-pooled whole blood extract
  Percentage of total circulating radioactivity in whole blood: 46.9%
[2]
  IC50: 112 nM
[3]; all participants
  Time of first detection of whole blood radioactivity: 5 min
[3]; all subjects except one (216 h)
  Time to which whole blood total radioactivity remained quantifiable: up to 240 h
[3]; first 4 h after dose
  Mean whole blood zalunfiban/total radioactivity expressed as a percentage, AUC0–4: 35.6% and 35%
[3]; mean, overall (0.5 h to 240 h), n=8
  t1/2, whole blood total radioactivity: 98.3 h
[3]; to be interpreted with caution (different assay sensitivity)
  Mean whole blood zalunfiban/total radioactivity expressed as a percentage, AUC0-inf: 15.1%
